This is an account of results in US9447103B2, “Inauhzin analogues that induce P53, inhibit cell growth, and have antitumor activity” (Indiana University Research and Technology Corp., priority 2012, dated 2016).

Like-named read-outs stand apart in the source and are kept apart here.

For assay [1], the system named is H1299. Kind of assay: Cell viability assay (3-day WST-8), H1299 (p53 null). The settings on record: Homo sapiens.
Experimental: (§1) Those cell lines were cultured in Dulbecco's modified Eagle's medium supplemented with 10% fetal bovine serum, 100 U per mL penicillin, and 100 U per mL streptomycin. Compounds were dissolved in DMSO and diluted directly into the medium to the indicated concentrations; 0.1% DMSO was used as a control.
(§2) Cell Viability Assay. To assess cell growth, the cell counting kit (Dojindo Molecular Technologies Inc., Gaithersburg, Md.) was used according to manufacturer's instructions. Cell suspensions were seeded at 3,000 cells per well in 96-well culture plates and incubated overnight at 37° C. Compounds were added into the plates and incubated at 37° C. for 72 hrs. Cell growth inhibition was determined by adding WST-8 at a final concentration of 10% to each well, and the absorbance of the samples was measured at 450 nm using a Microplate Reader (Molecular Device, SpecrtraMax M5^e).
Assay [2] has as its system H1299 cells and HCT116^−/− cells. Kind of assay: Cell growth inhibition (WST), statements covering p53-null lines. The settings on record: p53-null versus p53-containing.
Experimental: (§3) The EC50 values for their ability to inhibit cell growth were calculated through serial dilution of their concentrations with the highest concentration at 50 μM.
(§4) Human lung carcinoma H460, non-small-cell lung cancer H1299, human colon cancer HCT116 (HCT116^+/+), and human embryonic fibroblast WI-38 were bought from the American Type Culture Collection (ATCC). […] Those cell lines were cultured in Dulbecco's modified Eagle's medium supplemented with 10% fetal bovine serum, 100 U per mL penicillin, and 100 U per mL streptomycin. Compounds were dissolved in DMSO and diluted directly into the medium to the indicated concentrations; 0.1% DMSO was used as a control.
(§5) Cell Viability Assay. To assess cell growth, the cell counting kit (Dojindo Molecular Technologies Inc., Gaithersburg, Md.) was used according to manufacturer's instructions. Cell suspensions were seeded at 3,000 cells per well in 96-well culture plates and incubated overnight at 37° C. Compounds were added into the plates and incubated at 37° C. for 72 hrs. Cell growth inhibition was determined by adding WST-8 at a final concentration of 10% to each well, and the absorbance of the samples was measured at 450 nm using a Microplate Reader (Molecular Device, SpecrtraMax M5^e). EC50 values were determined by the Hill equation using Igor 4.01 (Lake Oswego, Oreg., USA).
For assay [3], the system named is H460. Description: Cell viability assay (3-day WST-8), H460. Format: cell-based, human. The settings on record: Homo sapiens, NCI-H460, H460, p53 wild type.
Experimental: as §1, §2
For assay [4], the system named is HCT116^+/+. Kind of assay: Cell viability assay (3-day WST-8), HCT116^+/+. The following applies: Homo sapiens, HCT-116. Format: cell-based, human.
Experimental: as §1, §2
The test system of assay [5] is HCT116^−/−. Kind of assay: Cell viability assay (3-day WST-8), HCT116^−/− (p53 null). The following applies: Homo sapiens.
Experimental: as §3, §4, §5
Assay [6] relates to xenograft tumors derived from p53-harboring lung cancer H460 and colon cancer HCT116^+/+ cells. The following applies: background, earlier work; cited from earlier work.

In the case of `CCC(Sc1nnc2c(n1)[nH]c1ccccc12)C(=O)N1c2ccccc2Sc2ccccc21` (stereo not drawn) [INZ, 2-((5H-[1,2,4]triazino[5,6-b]indole-3yl)thio)-1-(10H-phenothiazin-10-yl)butan-1-one, reference compound], the EC50 in assay [1] (NCI-H1299, 72 h, read-out: EC50 cell growth inhibition) is 11.6 ± 3.4 µM; in assay [3] (72 hrs, average of triplicates, read-out: EC50 cell growth inhibition) it was 7.7 ± 1.1 µM; in assay [4] (HCT116+/+ cells, values of b177 (differ from Table 1), read-out: EC50 growth inhibition) it was 3.52 µM; in assay [4] (HCT116^+/+, p53 wild type, 72 hrs, read-out: EC50 cell growth inhibition), 2.7 ± 0.3 µM; in assay [5] (HCT-116, 72 h, read-out: EC50 cell growth inhibition), 13.3 ± 2.4 µM. The EC90 in assay [1] (NCI-H1299, read-out: EC90 cell growth inhibition) was 217 µM; in assay [3] (calculated from EC50 and Hill slope, read-out: EC90 cell growth inhibition), approximately 39.9 µM; in assay [4] (HCT116^+/+, p53 wild type, calculated from EC50 and Hill slope, read-out: EC90 cell growth inhibition) it was 30.5 µM; in assay [5] (HCT-116, read-out: EC90 cell growth inhibition), 213 µM. Also, the “EC50 fold greater in p53-null cells than in p53-containing cell lines” value in assay [2] came to 1.5 fold. Besides, the “EC90 fold greater in p53-null cells than in p53-containing cell lines” value in assay [2] is 5-7 fold. Besides, in assay [6], the “growth of xenograft tumors” value is reported as “repressed the growth of xenograft tumors”.
